Among the data in PubChem BioAssay AID200 (DTP/NCI, 2004) are T/C values, retold here.

Several values for one entry are separate records, joined by “and”; a condition that tells them apart may be missing. Equal values may be shown once. Toxic doses and inconclusive results are not listed.

This test deals with B6C3F1 mice, B16 melanoma ip, median survival T/C. Nature of the test: NCI In Vivo Anticancer Drug Screen. Data for tumor model B16 Melanoma (intraperitoneal) in B6C3F1 mice. As to conditions: endpoint: median survival time, higher = longer survival. Put shortly:
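Tumor-bearing mice received test compound; a separate group got vehicle only. Survival was then compared, with results reported as treated over control.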

Setting [1] is: dose: 6.25 mg/kg/injection, schedule: Q01DX009 (ip), vehicle: Klucel (hydroxypropylcellulose) (HPC).
[2] abbreviates: dose: 12.5 mg/kg/injection, schedule: Q01DX009 (ip), vehicle: Klucel (hydroxypropylcellulose) (HPC).
Setting [3] is: dose: 25.0 mg/kg/injection, schedule: Q01DX009 (ip), vehicle: Klucel (hydroxypropylcellulose) (HPC).

As to `COc1ccc(C(Nc2ccccc2)C(=O)c2ccccc2)cc1` (stereo not drawn), the T/C is 102 % of control under setting [1], 96 % of control under setting [2] and 96 % of control under setting [3].

For `O=S(=O)(O)C1=CC(=N\Cl)/C=CC/1=N/Cl`, the T/C by setting is: (dose: 50.0 mg/kg/injection, schedule: Q01DX009 (ip), vehicle: saline + Tween-80 + alcohol) 100 % of control; (dose: 100.0 mg/kg/injection, schedule: Q01DX009 (ip), vehicle: saline + Tween-80 + alcohol) 100 % of control.

In the case of `CC(C)C(NC(=O)OC(C)(C)C)C(=O)O` (stereo not drawn), the T/C (dose: 100.0 mg/kg/injection, schedule: Q01DX009 (ip), vehicle: Klucel (hydroxypropylcellulose) (HPC)) is 90 % of control.

Regarding `N=C1C=C[C@]2(O)C[C@H](Cl)CN12`, the T/C was 102 % of control (dose: 0.75 mg/kg/injection, schedule: Q01DX009 (ip), vehicle: saline); 111 % of control (dose: 1.5 mg/kg/injection, schedule: Q01DX009 (ip), vehicle: saline); 119 % of control (dose: 3.0 mg/kg/injection, schedule: Q01DX009 (ip), vehicle: saline); 104 % of control (dose: 6.0 mg/kg/injection, schedule: Q01DX009 (ip), vehicle: saline).

For `CCCCCC1c2cc(O)ccc2OC1N1CCOCC1` (stereo not drawn), the T/C by setting is: (dose: 6.0 mg/kg/injection, schedule: Q01DX009 (ip), vehicle: saline with Tween-80) 90 % of control; (dose: 12.0 mg/kg/injection, schedule: Q01DX009 (ip), vehicle: saline with Tween-80) 103 % of control; (dose: 12.5 mg/kg/injection, schedule: Q01DX009 (ip), vehicle: saline with Tween-80) 106 % of control; (dose: 25.0 mg/kg/injection, schedule: Q01DX009 (ip), vehicle: saline with Tween-80) 96 % of control and 107 % of control; (dose: 50.0 mg/kg/injection, schedule: Q01DX009 (ip), vehicle: saline with Tween-80) 98 % of control and 102 % of control; (dose: 100.0 mg/kg/injection, schedule: Q01DX009 (ip), vehicle: saline with Tween-80) 94 % of control and 106 % of control. Also, the T/C (dose: 200.0 mg/kg/injection, schedule: Q01DX009 (ip), vehicle: saline with Tween-80) was 96 % of control and 97 % of control.

For `COC(=O)[C@@]12OC[C@]34[C@H]([C@@H](O)[C@@H]1O)[C@@]1(C)CC(=O)C(O)=C(C)[C@@H]1C[C@H]3OC(=O)[C@H](OC(=O)/C=C(/C)C(C)(C)O)[C@@H]24`, the T/C is, setting by setting: (dose: 0.25 mg/kg/injection, schedule: Q01DX009 (ip), vehicle: saline + alcohol) 104 % of control; (dose: 0.5 mg/kg/injection, schedule: Q01DX009 (ip), vehicle: saline + alcohol) 110 % of control and 117 % of control; (dose: 1.0 mg/kg/injection, schedule: Q01DX009 (ip), vehicle: saline + alcohol) 119 % of control.

As for `COc1cc([C@@H]2c3cc4c(cc3[C@H](O)[C@H]3COC(=O)[C@H]23)OCO4)cc(OC)c1OC`, the T/C is, setting by setting: (dose: 0.36 mg/kg/injection, schedule: Q01DX009 (ip), vehicle: Klucel (hydroxypropylcellulose) (HPC)) 116 % of control; (dose: 0.6 mg/kg/injection, schedule: Q01DX009 (ip), vehicle: Klucel (hydroxypropylcellulose) (HPC)) 102 % of control; (dose: 1.0 mg/kg/injection, schedule: Q01DX009 (ip), vehicle: Klucel (hydroxypropylcellulose) (HPC)) 107 % of control; (dose: 1.67 mg/kg/injection, schedule: Q01DX009 (ip), vehicle: Klucel (hydroxypropylcellulose) (HPC)) 103 % of control; (dose: 2.0 mg/kg/injection, schedule: Q01DX009 (ip), vehicle: Klucel (hydroxypropylcellulose) (HPC)) 123 % of control; (dose: 2.78 mg/kg/injection, schedule: Q01DX009 (ip), vehicle: Klucel (hydroxypropylcellulose) (HPC)) 114 % of control. Further, under “dose: 4.0 mg/kg/injection, schedule: Q01DX009 (ip), vehicle: Klucel (hydroxypropylcellulose) (HPC)”, the T/C was 114 % of control.

`Cn1c(N)c(C(=O)/C=C/c2ccccc2)c(=O)n(C)c1=O`: the T/C was 101 % of control (dose: 1.56 mg/kg/injection, schedule: Q01DX009 (ip), vehicle: Klucel (hydroxypropylcellulose) (HPC)); 107 % of control (dose: 3.12 mg/kg/injection, schedule: Q01DX009 (ip), vehicle: Klucel (hydroxypropylcellulose) (HPC)); 106 % of control under setting [1]; 104 % of control under setting [2]; 105 % of control under setting [3]; 116 % of control (dose: 50.0 mg/kg/injection, schedule: Q01DX009 (ip), vehicle: Klucel (hydroxypropylcellulose) (HPC)).

On to `C=C1C(C)C2C(Cc3ccccc3)NC(=O)C23C(OC(C)=O)/C=C/C(C)(O)CC(C)C/C=C/C3C1O` (stereo not drawn), for which the T/C by setting is: (dose: 0.37 mg/kg/injection, schedule: Q01DX009 (ip), vehicle: Klucel (hydroxypropylcellulose) (HPC)) 112 % of control and 99 % of control; (dose: 0.75 mg/kg/injection, schedule: Q01DX009 (ip), vehicle: Klucel (hydroxypropylcellulose) (HPC)) 110 % of control and 100 % of control and 101 % of control; (dose: 1.5 mg/kg/injection, schedule: Q01DX009 (ip), vehicle: Klucel (hydroxypropylcellulose) (HPC)) 115 % of control and 98 % of control and 103 % of control; (dose: 1.56 mg/kg/injection, schedule: Q01DX009 (ip), vehicle: saline with Tween-80) 124 % of control; (dose: 3.0 mg/kg/injection, schedule: Q01DX009 (ip), vehicle: Klucel (hydroxypropylcellulose) (HPC)) 112 % of control and 115 % of control and 105 % of control; (dose: 3.13 mg/kg/injection, schedule: Q01DX009 (ip), vehicle: saline with Tween-80) 111 % of control. For the same compound, the T/C (dose: 6.0 mg/kg/injection, schedule: Q01DX009 (ip), vehicle: Klucel (hydroxypropylcellulose) (HPC)) is 103 % of control; the T/C (dose: 6.25 mg/kg/injection, schedule: Q01DX009 (ip), vehicle: saline with Tween-80) was 113 % of control; the T/C (dose: 12.0 mg/kg/injection, schedule: Q01DX009 (ip), vehicle: Klucel (hydroxypropylcellulose) (HPC)) is 103 % of control.

As to `O=C(O)CCCCCCCC(=O)O`, the T/C by setting is: (dose: 12.5 mg/kg/injection, schedule: Q01DX009 (ip), vehicle: distilled water + Tween-80) 91 % of control; (dose: 25.0 mg/kg/injection, schedule: Q01DX009 (ip), vehicle: distilled water + Tween-80) 101 % of control; (dose: 50.0 mg/kg/injection, schedule: Q01DX009 (ip), vehicle: distilled water + Tween-80) 101 % of control; (dose: 100.0 mg/kg/injection, schedule: Q01DX009 (ip), vehicle: distilled water + Tween-80) 91 % of control.

For the compound `CC(=O)NC(Cc1cc(I)c(O)c(I)c1)C(=O)O` (stereo not drawn), the T/C by setting is: (dose: 50.0 mg/kg/injection, schedule: Q01DX009 (ip), vehicle: saline) 121 % of control; (dose: 100.0 mg/kg/injection, schedule: Q01DX009 (ip), vehicle: saline) 89 % of control; (dose: 200.0 mg/kg/injection, schedule: Q01DX009 (ip), vehicle: saline) 92 % of control; (dose: 400.0 mg/kg/injection, schedule: Q01DX009 (ip), vehicle: saline) 102 % of control.

Regarding `CC(=O)O[C@H]1C(=O)[C@@]2(C)C(C(OC(=O)c3ccccc3)[C@]3(O)C[C@H](OC(=O)C(OC(=O)CCCC(=O)NCCCN(C)C)C(NC(=O)c4ccccc4)c4ccccc4)C(C)=C1C3(C)C)C1(OC(C)=O)COC1C[C@@H]2O` (stereo partly drawn), the T/C reads like this: (dose: 10.0 mg/kg/injection, schedule: Q01DX009 (ip), vehicle: water) 191 % of control; (dose: 20.0 mg/kg/injection, schedule: Q01DX009 (ip), vehicle: water) 229 % of control; (dose: 40.0 mg/kg/injection, schedule: Q01DX009 (ip), vehicle: water) 289 % of control.

`CO[C@H]1Nc2c(ccc(C)c2O)C(=O)N2C=C(/C=C/C(N)=O)C[C@@H]12`: the T/C is, setting by setting: (dose: 0.03 mg/kg/injection, schedule: Q01DX009 (ip), vehicle: saline with Tween-80) 111 % of control; (dose: 0.05 mg/kg/injection, schedule: Q04DX003 (ip), vehicle: DMSO) 92 % of control; (dose: 0.06 mg/kg/injection, schedule: Q01DX009 (ip), vehicle: saline with Tween-80) 104 % of control; (dose: 0.1 mg/kg/injection, schedule: Q04DX003 (ip), vehicle: DMSO) 105 % of control; (dose: 0.12 mg/kg/injection, schedule: Q01DX009 (ip), vehicle: saline with Tween-80) 102 % of control; (dose: 0.2 mg/kg/injection, schedule: Q04DX003 (ip), vehicle: DMSO) 109 % of control. Also, the T/C is 122 % of control (dose: 0.25 mg/kg/injection, schedule: Q01DX009 (ip), vehicle: saline with Tween-80) and 104 % of control (dose: 0.4 mg/kg/injection, schedule: Q04DX003 (ip), vehicle: DMSO).

For the compound `NCCCNCCCCNC(=O)C(O)NC(=O)CCCCCCN=C(N)N` (stereo not drawn), the T/C (dose: 6.25 mg/kg/injection, schedule: Q01DX009 (ip), vehicle: saline) is 108 % of control and the T/C (dose: 12.5 mg/kg/injection, schedule: Q01DX009 (ip), vehicle: saline) is 95 % of control.
